Results on two compounds are retold here after patent US11072592B2, “Small molecules that enable cartilage rejuvenation” (The Regents of the University of California, priority 2015, dated 2021).

For this test, the system named is adult pig articular cartilage explants. In words: Proliferation (EdU) and marker expression in adult articular cartilage explants. It is filed as cell-based. The procedure: FIGS. 26A-26J. LIF/STAT3/MYC signaling is prominent in fetal articular chondrocytes and can activate a fetal-like phenotype in adult cells. (FIG. 26A) Levels of phospho-STAT3 (pSTAT3) and MYC protein were quantitated in human fetal and adult articular chondrocytes relative to histone H3. (FIG. 26B) Effects of soluble LIF receptor (sLIFR) on MYC and pSTAT3 protein levels on fetal articular chondrocytes after 72 hours. (FIG. 26C) Detection of apoptotic cells using TUNEL staining and flow cytometry analysis of fetal articular cartilage explants cultured in the absence (control) or presence of a MYC (10058-F4) or STAT3 (STATTIC) inhibitor for 24 hours. (FIG. 26D) Quantification of proliferating cells via EdU incorporation in fetal articular cartilage explants and also by flow cytometry analysis for BrdU. Scale bars represent 100 μm. (FIG. 26E) Assessment of metabolic activity of human fetal articular chondrocytes cultured in the presence or absence of MYC or STAT3 inhibitors. (FIG. 26F) Migration capacity of fetal articular chondrocytes was assessed using a Transwell® assay in the absence or presence of MYC and STAT3 inhibitors. (FIG. 26G) Protein levels of MYC and pSTAT3 were measured in adult human articular chondrocytes with and without incubation with LIF. Data are shown normalized to histone H3. (FIG. 26H) Migratory capacity of adult human articular chondrocytes in a Transwell® assay measured in the presence or absence of LIF. (FIG. 26I) Single adult human articular chondrocytes were cultured with or without LIF for 5 weeks to allow detection of colony-forming cells. […]
FIGS. 28A-28I. […] (FIG. 28A) Adult human articular chondrocytes were incubated with or without RCGD 423 and levels of MYC and pSTAT3 were quantified relative to histone H3. (FIG. 28B) Levels of MYC and pSTAT3 protein were measured in pig adult articular chondrocytes to determine the effects of RCGD 423 in a dose- and time-dependent manner; histone H3 was used as a loading control. (FIG. 28C) Migration of adult human articular chondrocytes in a Transwell® assay was assessed in the presence and absence of RCGD 423. […]

Entries after “also recorded” stand apart in the source; their conditions may differ.

Take `Brc1ccc(Nc2nc(-c3ccccc3)cs2)cc1` [RCGD 423, N-(4-Bromophenyl)-4-phenyl-1,3-thiazol-2-amine]: the “proliferation of chondrocytes in adult cartilage explants (EdU)” value is “increased”.

For the compound “LIF: interleukin 6 (IL-6)-class cytokine”, the “proliferation of chondrocytes in adult cartilage explants (EdU)” value is “stimulated proliferation; also recorded: significantly increased”. For the same compound, the “expression of the stem/progenitor cell marker ALDH 1A1 in the surface layer” value (adult pig cartilage explants, LIF 50 ng/mL for 3 days) is “increased expression”.
